The results in this text go back to the METLIN SMRT retention time set (Domingo-Almenara et al. 2019).

The data set can be described thus: gradient 5% acetonitrile 3 min, to 50% in 2 min, to 85% in 15 min, held 3 min, 100 µL/min. The note with it: column: Zorbax Extend-C18 2.1 x 50 mm; eluents: water / acetonitrile, 0.1% formic acid. The method, boiled down: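 Values are retention times taken from adduct peaks that software picked and an analyst inspected. The pure standards were run as mixtures of ~100 molecules on HPLC linked to a quadrupole time-of-flight mass spectrometer, in positive and negative ionization mode. A Zorbax Extend-C18 column (2.1 × 50 mm, 1.8 μm) was used at 100 μL/min with water and acetonitrile, each including 0.1% formic acid.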
The compound `O=C1CCN(C(=O)C2CCN(C(=O)CC3CCCC3)CC2)CCCCCCN1` showed an RP-LC retention time of 686 s.

The compound `CCOc1ccccc1CNC(=O)c1cc2c(=O)n(C)ccc2n1C` had an RP-LC retention time of 713 s.

In the case of `Cc1ccc(N2CCC(NC(=O)Nc3ccccc3)C2=O)cc1` (stereo unspecified), the RP-LC retention time was 811 s.

Compound `CCCC(=O)N1CCCC(c2nc(CNC(=O)C3CCC3)cs2)C1` (stereo unspecified) yielded an RP-LC retention time of 694 s.

In turn, `O=C(CSCc1ccccc1)N1CCC(c2nnc(C(F)(F)F)o2)CC1` returned an RP-LC retention time of 857 s.

In turn, `Cc1nc2ccccn2c(=O)c1CCN1CCC(C(=O)c2ccc(F)cc2)CC1` registered an RP-LC retention time of 643 s.

For `O=C(c1cccs1)N1CCC(c2nnc(-c3ccc(F)cc3)o2)CC1`, the RP-LC retention time was 733 s.

Compound `O=C(c1ccccc1)N1CCC(Oc2cc(N3CCOCC3)ncn2)C1` (stereo unspecified) had an RP-LC retention time of 676 s.

In the case of `O=C(NC1CCCCC1)c1cc2c(s1)CCN(C(=O)c1ccc(F)cc1)C2`, the RP-LC retention time was 893 s.

In turn, `CCn1cc(C)c(C(=O)O)c1CC(=O)N1CCCc2ccccc21` gave an RP-LC retention time of 811 s.

Compound `O=C1OCC/C1=C\OCCCO/C=C1\CCOC1=O` came in with an RP-LC retention time of 716 s.

With `C=CCN(CC=C)C(=O)Cn1c(C2CC(=O)N(c3ccc(OC)cc3)C2)nc2ccccc21` (stereo unspecified), the RP-LC retention time is 682 s.

In turn, `Cc1cc(NC(=O)Cn2nc(C(=O)N3CCCC3)c3ccccc32)ccc1Br` came in with an RP-LC retention time of 948 s.

Compound `CCOC(=O)c1nc(N(CC)Cc2ccccc2)c2ccccc2n1` displayed an RP-LC retention time of 899 s.

Compound `COc1ccc(N2CCN(C(=O)Cn3ccc4c(c(C)nn4-c4ccccc4)c3=O)CC2)cc1` returned an RP-LC retention time of 736 s.

`O=C(CN1C[C@H]2C[C@H](C1)[C@H]1CCCC(=O)N1C2)NCC1CC1`: the RP-LC retention time came to 563 s.

`O=S(=O)(NC1CCCCCC1)c1ccc2c(c1)-c1oncc1CO2`: the RP-LC retention time came out at 1000 s.

On to `CCOC(=O)c1ccc(NC(=O)Cn2cnc3ccccc32)cc1`, for which the RP-LC retention time is 594 s.

On to `CCOCC(=O)NCCNC(=O)c1ccc(NC(C)=O)cc1`, for which the RP-LC retention time stood at 570 s.

In turn, `COc1ccc(C2(C(=O)N3CCn4c(C)nnc4C3)CC2)cc1` registered an RP-LC retention time of 584 s.

As to `CN(C)C(=O)c1ccc2c(c1)N(CC(=O)N1CCN(c3ccccc3)CC1)C(=O)C1CCCCN21` (stereo unspecified), the RP-LC retention time is 778 s.

For `COc1ccc(NC(=O)NC2CCN(c3ccc(F)cc3)C2=O)cc1F` (stereo unspecified), the RP-LC retention time came to 781 s.

As for `COc1ccccc1OCCNC(=O)C1CCN(c2nnc3ccc(Cl)cn23)CC1`, the RP-LC retention time was 707 s.

For `Cc1nc2nc3c(cn2n1)C(=O)CCC3`, the RP-LC retention time is 593 s.

Regarding `CCN1C(=O)c2cccnc2Sc2cc(NC(=O)C3(c4ccc(OC)cc4)CC3)ccc21`, the RP-LC retention time was 939 s.

Regarding `CCOC(=O)c1cc(S(=O)(=O)N2CCCC2C(=O)Nc2ccc(NC(C)=O)cc2)cn1C` (stereo unspecified), the RP-LC retention time was found to be 718 s.

Take `CC(C)NC(=O)C1CCCN(S(=O)(=O)c2cc(-c3noc(C4CCCC4)n3)cs2)C1` (stereo unspecified): the RP-LC retention time is 1050 s.

As to `O=C(NC(c1ccccc1)c1nnc(N2CCCC2)o1)c1ccc2c(c1)OCO2` (stereo unspecified), the RP-LC retention time is 777 s.

Turning to `CCNC(=O)c1ccc2c(c1)CCN2C(C)=O`, the RP-LC retention time came out at 609 s.

Turning to `CCN1CCN(CCCNc2ccc(-c3nc(-c4ccc(C)cc4)no3)cn2)CC1`, the RP-LC retention time turned out to be 646 s.

Regarding `CC(C)Cn1cc(CCNC(=O)c2cccc(Br)c2)c2cccnc21`, the RP-LC retention time stood at 922 s.

In turn, `Cc1ccc(C2=NC3(CCN(C(=O)c4ccoc4)CC3)ON2)cc1` returned an RP-LC retention time of 752 s.

Compound `CC(=O)c1cccc(NC(=O)N2CCN(c3nc4ccccc4n3C)CC2)c1` came in with an RP-LC retention time of 566 s.

As for `COCCNC(=O)CN1C(=O)C2CCCCN2c2ccc(S(=O)(=O)N3CCCC3)cc21` (stereo unspecified), the RP-LC retention time was determined as 728 s.

The compound `Cc1ccc(-c2cn3cccc(C)c3n2)cc1NS(=O)(=O)c1ccc(Br)cc1` registered an RP-LC retention time of 737 s.

In the case of `CN1C(=O)C2CCCCN2c2ccc(C(=O)N3CCC(Cc4ccccc4)CC3)cc21` (stereo unspecified), the RP-LC retention time stood at 1110 s.

The compound `CCn1c(N2CCCC(C(=O)NCCCOC)C2)cc(=O)n(C)c1=O` (stereo unspecified) yielded an RP-LC retention time of 665 s.

Consider `Cc1nc(-n2nc(C)c(Cl)c2C)sc1C(=O)N1CCCCC1`, for which the RP-LC retention time was 1200 s.

The compound `Cc1cc(-c2cc(S(=O)(=O)N(CCN(C)C)Cc3cccs3)c(C)s2)n[nH]1` had an RP-LC retention time of 658 s.

For `Cc1ccc(-n2ccc(=O)c(-c3nc(-c4ccc(Cl)cc4)no3)n2)cc1`, the RP-LC retention time stood at 1030 s.

`CCOc1cccc(CNS(=O)(=O)c2cc(-c3nc(C(C)(C)C)cs3)cs2)c1` showed an RP-LC retention time of 1270 s.

The compound `CC(C)Oc1ccc(CNC(=O)C2CCCN(c3ccc(=O)n(-c4cccc(Cl)c4)n3)C2)cc1` (stereo unspecified) displayed an RP-LC retention time of 946 s.

Regarding `O=C(NCc1ccco1)c1c(O)c2cccnc2n(-c2cccc(F)c2)c1=O`, the RP-LC retention time was 1070 s.

`CCOc1ccc(CC(=O)Nc2cc(-c3cccnc3)no2)cc1`: the RP-LC retention time worked out at 760 s.

Compound `O=C(NCCn1cccn1)c1nn(CCOc2ccccc2)c2c1CNCC2` gave an RP-LC retention time of 600 s.

In the case of `CC(C)CN1C(=O)c2cccn2CC1C(=O)N1CCCC1` (stereo unspecified), the RP-LC retention time is 674 s.

As to `CC(=O)N1CCc2nn(CC(=O)Nc3cccc(Br)c3)c(=O)cc2C1`, the RP-LC retention time was found to be 666 s.

For `CCC(=O)N1CCOc2ccc(N3CCOCC3)cc2C1`, the RP-LC retention time is 630 s.

`COCCNC(=O)N1CCC(OC2CCN(Cc3ccccc3)CC2)CC1` yielded an RP-LC retention time of 571 s.

`CCn1c(=O)n(CC)c2cc(S(=O)(=O)c3ccccc3)c(NC(=O)CC(C)C)cc21` registered an RP-LC retention time of 937 s.

Take `COc1c(C(=O)NC2CCCC2)sc2ccc(F)cc12`: the RP-LC retention time was found to be 1080 s.

Take `CCOc1ccc(C(=O)Nc2nc3c(s2)CCc2ccccc2-3)cc1`: the RP-LC retention time was 1200 s.

`CCOc1ccc(C(=O)NCCc2nc3cccnc3n2CC)cc1` had an RP-LC retention time of 642 s.

Turning to `Cc1cc(C)cc(NC(=O)N2CCC3(CC2)NC(=O)c2cc(F)ccc2N3C)c1`, the RP-LC retention time came out at 769 s.

Take `C/C=C(/C)C(=O)O[C@H]1CC(C)=CC(=O)[C@@]2(C)CC[C@@](O)(C(C)C)[C@H]12`: the RP-LC retention time turned out to be 725 s.

Compound `Cc1cnc(C2CC2)n1CCNC(=O)C1CC=CC1` gave an RP-LC retention time of 562 s.

`O=C(NC1CCCC1)C1c2ccccc2C(=O)N1Cc1ccc(F)cc1` (stereo unspecified): the RP-LC retention time turned out to be 862 s.

In turn, `CS(=O)(=O)N1CCC(C(=O)NC2CCCC(OC(=O)Nc3ccc(F)cc3)C2)CC1` (stereo unspecified) yielded an RP-LC retention time of 704 s.

Turning to `COc1ccc(-c2nc3ncccn3c2Nc2cccc(C(F)(F)F)c2)cc1`, the RP-LC retention time turned out to be 903 s.

`O=C(Cn1cccc(-c2nc(-c3ccc(Cl)cc3)no2)c1=O)N1CCCCC1` gave an RP-LC retention time of 855 s.

Consider `O=C(NCc1cccs1)C1CCN(Cc2cc3ccccc3n2Cc2cccc(F)c2)CC1`, for which the RP-LC retention time turned out to be 779 s.

`COc1cccc(CN2CC(=O)N(Cc3cccc(F)c3)c3ccccc3S2(=O)=O)c1` registered an RP-LC retention time of 1070 s.

Compound `CCC(C)C(=O)NC1CCN(C2=NS(=O)(=O)C(c3ccc(F)cc3)=C2C)CC1` (stereo unspecified) returned an RP-LC retention time of 785 s.

`O=C(Cc1cn2cc(Br)ccc2n1)N1CCc2ccccc2C1`: the RP-LC retention time is 635 s.

For the compound `CCC1Oc2ccc(S(=O)(=O)N3CCC(C(=O)N(C)Cc4ccccc4)CC3)cc2NC1=O` (stereo unspecified), the RP-LC retention time was 872 s.

`O=C(c1cnccn1)N1CCC(c2noc(C3CC3)n2)C1` (stereo unspecified) had an RP-LC retention time of 646 s.

Compound `COc1cc(C(=O)N2CCC3(CC2)Nc2cc(F)ccc2-n2cccc23)cc(OC)c1OC` had an RP-LC retention time of 868 s.

`Cn1cc(CN2CCC(C(=O)N3CCN(c4ccccc4F)CC3)CC2)c2cc(Cl)ccc21`: the RP-LC retention time came out at 794 s.

The compound `COC(=O)c1c(NCc2cc(F)cc(F)c2)c2cccc(Cl)c2[nH]c1=O` displayed an RP-LC retention time of 808 s.

For the compound `O=C(NC(c1ccccc1)c1nnc(N2CCCCC2)o1)c1ccco1` (stereo unspecified), the RP-LC retention time is 774 s.

Regarding `COc1ccc(NS(=O)(=O)c2cc(-c3cc(C(F)(F)F)[nH]n3)sc2C)cc1Cl`, the RP-LC retention time was 995 s.

Regarding `CCC1CCCCN1C(=O)CSc1n[nH]c(-c2ccccc2)n1` (stereo unspecified), the RP-LC retention time is 819 s.

The compound `CN(C)c1ccc(C(=O)N2CCN(c3cc(-c4cccs4)[nH]n3)CC2)cc1` showed an RP-LC retention time of 714 s.

As for `Cc1cn(C)nc1C(=O)Nc1nnc(-c2cccs2)o1`, the RP-LC retention time stood at 647 s.

In turn, `N#Cc1ccc(-c2nc(-c3ccc4c(c3)nnn4CCN3CCCCC3)no2)cc1` gave an RP-LC retention time of 676 s.

For `Cc1ccc(S(=O)(=O)N2CCc3c(c(-c4nnc(-c5ccccc5)o4)nn3C)C2)c(C)c1`, the RP-LC retention time was 1020 s.

The compound `CC1=C(c2ccc(C)c(C)c2)S(=O)(=O)N=C1N1CCCN(C(=O)c2ccoc2)CC1` yielded an RP-LC retention time of 764 s.

In the case of `COC(=O)c1ccc2c(=O)n(-c3cccc(C)c3)c(N3CCSC3)nc2c1`, the RP-LC retention time amounted to 1130 s.

For `CS(=O)(=O)Nc1ccc(C2(C(=O)NCc3ccc(F)cc3)CCCCC2)cc1`, the RP-LC retention time amounted to 897 s.

Take `Cc1cc(NC(=O)c2cc3c(=O)n(CC(C)C)ccc3n2C)ccc1Br`: the RP-LC retention time amounted to 1030 s.

`COc1cc(-n2cnc3cc(C(=O)NCC4CCCO4)ccc32)cc(OC)c1OC` (stereo unspecified) came in with an RP-LC retention time of 660 s.
